Source: patent publication US8961873B2, “Antinfection protecting healthcare workers to prevent spreading of communicable and nosocomial infections” (priority 2011, dated 2015)

Details: the rest remains in inactive suspension

## [Ca+2].[F-].[F-] [CaF2, Calcium-Fluoride]
  amount going into solution in water: 16 ppm
